This is an account of results in US6369057B1, “Quinoxalines, processes for their preparation and their use” (Aventis Pharma Deutschland GmbH, priority 1991, dated 2002).

The structures appear in SMILES notation. Converted amounts (≈) assume the structure as drawn. Some results are limits rather than exact numbers.

One assay relates to HIV. In words: Test of preparations against HIV in cell culture (T-cell culture assay). The assay is classed as cell-based. As to conditions: Human immunodeficiency virus 1, 72 h; lowest concentration where no giant cells were observed; HIV-infected lymphocytes from donor blood, 3 days at 37° C. As to the method: Test of Preparations Against HIV in Cell Culture
Complete medium additionally contains 20% fetal calf serum and 40 IU/ml recombinant interleukin 2.
Lymphocytes which have been isolated from fresh donor blood by means of Ficoll gradient centrifugation are cultured for 36 hours in complete medium with an addition of 2 μg/ml phytohemagglutinin (Wellcome) at 37° C. under 5% of CO2. After 10% of DMSO has been added, the cells are frozen at a density of 5 [formula]10^6 and stored in liquid nitrogen. For the test, the cells are defrosted, washed in RPMI medium and cultured for 3-4 days in the complete medium.
The test preparations were dissolved in DMSO at a concentration of 16.7 mg/ml and diluted in complete medium to 1 mg/ml.
0.4 ml of medium was introduced into 24-multiwell dishes. 0.1 ml of the dissolved preparation was added to the upper row of the dish, and, by transferring 0.1 ml portions, a geometric dilution series was established. Controls without preparation always contained 0.4 ml of complete medium containing 0.5% of DMSO. Lymphocyte cultures with a cell density of 5 [formula]10^5 cells/ml were infected by adding 1/50 volume supernatant from HIV-infected lymphocyte cultures. The titer of these culture supernatants was determined by end-point titration as 1-5 [formula]10^6 infectious units/ml. After 30 minutes' incubation at 37° C., the infected lymphocytes were removed by centrifugation and taken up in an equal volume of medium. From this cell suspension, 0.6 ml aliquots were transferred into all wells of the test plate. The mixtures were incubated for 3 days at 37° C.
The infected cell cultures were examined under the microscope for the presence of giant cells, which indicate active virus multiplication in the culture. The lowest concentration of preparation where no giant cells were observed was determined as inhibitory concentration against HIV. As a control, the supernatants from the culture plates were tested for the presence of HIV antigen with the aid of an HIV antigen test following the manufacturer's instructions (Organon).
Consider `CC(C)=CCN1c2cc(Cl)ccc2NC(=O)[C@H]1C` [VI-B, (3R)-6-Chloro-3-methyl-4-N-(3-methyl-2-buten-1-yl)-3,4-dihydroquinoxalin-2(1H)-one], for which the MIC came to 20 µg/mL (≈ 75.5 µM).

In turn, `CC(C)=CCN1c2ccccc2NC(=O)C1(C)C` [Example XX, 3,3-Dimethyl-4-N-(3-methyl-2-buten-1-yl)-3,4-dihydroquinoxalin-2(1H)-one] gave an MIC below 4 µg/mL.

Compound `C[C@H]1C(=O)Nc2ccc(Cl)cc2N1C(=O)OCc1ccccc1` [Example III, (3S)-4-N-(Benzyloxycarbonyl)-6-chloro-3-methyl-3,4-di-hydroquinoxalin-2(1H)-one] returned an MIC of 0.8 µg/mL (≈ 2.42 µM).

The assay is the same for the next values; noted with them: lowest concentration where no giant cells were observed; HIV-infected lymphocytes from donor blood, 3 days at 37° C.
With `CC1C(=O)Nc2ccc(Cl)cc2N1Cc1ccc(Br)cc1` (stereo not shown) [Example 10-14], the “T-cell culture assay MIC” value is below 0.8 µg/mL.

On to `C=C(C)OC(=O)N1c2ccc(OCC)cc2NC(=O)C1(C)C` [Example 6-33], for which the “T-cell culture assay MIC” value was above 0.8 µg/mL.

Regarding `CC(C)=CCN1c2cc(F)ccc2NC(=O)C1C` (stereo not shown) [Example 3-67], the “T-cell culture assay MIC” value is below 0.8 µg/mL.

For `CC#CCOC(=O)N1c2cc(Cl)ccc2NC(=O)C1C` (stereo not shown) [Example 11-4], the “T-cell culture assay MIC” value stood at 0.8 µg/mL.

Turning to `C=CCOC(=O)N1c2cc(Cl)ccc2NC(=O)C1C(C)CC` (stereo not shown) [Example 3-80], the “T-cell culture assay MIC” value was 0.4 µg/mL.

For `CC(C)COC(=O)N1c2cc(Cl)ccc2NC(=O)C1C` (stereo not shown) [Example 3-26], the “T-cell culture assay MIC” value was 0.4 µg/mL.

As for `C=C(C)OC(=O)N1c2cc(Cl)ccc2NC(=O)C1CCSC` (stereo not shown) [Example 3-44], the “T-cell culture assay MIC” value was below 0.8 µg/mL.

Consider `C=CCOC(=O)N1c2cc(Cl)ccc2NC(=O)C1CC(C)C` (stereo not shown) [Example 3-48], for which the “T-cell culture assay MIC” value was below 0.8 µg/mL.

As for `CC=CCOC(=O)N1c2cc(Cl)ccc2NC(=O)C1C` (stereo not shown) [Example 11-1], the “T-cell culture assay MIC” value is below 0.8 µg/mL.

As for `C=C(C)OC(=O)N1c2ccc(F)cc2NC(=O)C1(C)C` [Example 6-32], the “T-cell culture assay MIC” value is below 0.08 µg/mL.

For the compound `CCC1(CC)C(=O)Nc2cc(C)ccc2N1CC=C(C)C` [Example 6-20], the “T-cell culture assay MIC” value was below 0.8 µg/mL.

Take `CC(C)=CCN1c2ccc(F)cc2NC(=O)C1(C)C` [Example 6-22]: the “T-cell culture assay MIC” value was above 0.8 µg/mL.

Take `C=C(C)OC(=O)N1c2cc(OCCOC)ccc2NC(=O)C1CC` (stereo not shown) [Example 3-33]: the “T-cell culture assay MIC” value was 0.4 µg/mL.

As for `CCCCC(=O)N1c2cc(Cl)ccc2NC(=O)C1C` (stereo not shown) [Example 3-87], the “T-cell culture assay MIC” value was above 0.8 µg/mL.

Turning to `C=C(C)OC(=O)N1c2ccc(Oc3ccccc3)cc2NC(=O)C1(C)C` [Example 6-39], the “T-cell culture assay MIC” value worked out at 0.4 µg/mL.

On to `C=C(C)OC(=O)N1c2cc(C)c(C)cc2NC(=O)C1(C)C` [Example 6-36], for which the “T-cell culture assay MIC” value is below 0.8 µg/mL.

Take `C#CCOC(=O)N1c2cc(Cl)ccc2NC(=O)C1C` (stereo not shown) [Example 11-3]: the “T-cell culture assay MIC” value was below 0.8 µg/mL.

In the case of `CC(C)CCN1c2cc(Cl)ccc2NC(=O)C1C` (stereo not shown) [Example 10-5], the “T-cell culture assay MIC” value is below 0.8 µg/mL.

For `C=C(C)OC(=O)N1c2ccc(Oc3ccccc3)cc2NC(=O)C1C` (stereo not shown) [Example 3-73], the “T-cell culture assay MIC” value is above 0.4 µg/mL.

As for `CC1C(=O)Nc2ccc(Cl)cc2N1Cc1ccccc1` (stereo not shown) [Example 3-21], the “T-cell culture assay MIC” value is 0.16 µg/mL.

Turning to `C=C(C)OC(=O)N1c2ccc(F)cc2NC(=O)C1C` (stereo not shown) [Example 3-66], the “T-cell culture assay MIC” value was above 0.08 µg/mL.

In the case of `CCCC(=O)N1c2cc(Cl)ccc2NC(=O)C1C` (stereo not shown) [Example 3-88], the “T-cell culture assay MIC” value came out at 0.8 µg/mL.

Consider `CC(C)=CCN1c2c(Cl)cccc2NC(=O)C1C` (stereo not shown) [Example 3-52], for which the “T-cell culture assay MIC” value is above 0.8 µg/mL.

For the compound `CC1C(=O)Nc2ccc(Cl)cc2N1C1CCC1` (stereo not shown) [Example 10-4], the “T-cell culture assay MIC” value was found to be 0.4 µg/mL.

On to `CC(C)=CCN1c2ccc(F)cc2NC(=O)C1C` (stereo not shown) [Example 3-64], for which the “T-cell culture assay MIC” value was above 0.8 µg/mL.

Turning to `C=C(C)OC(=O)N1c2ccc(Cl)cc2NC(=O)C1CCSC` (stereo not shown) [Example 3-62], the “T-cell culture assay MIC” value is below 4.0 µg/mL.

Turning to `CC(C)=CCN1c2ccc(Cl)cc2NC(=O)C1C` (stereo not shown) [Example 3-53], the “T-cell culture assay MIC” value is above 0.8 µg/mL.

A further assay concerns the target T1, HIV reverse transcriptase (RT) (Human immunodeficiency virus type 1 group M subtype B, UniProt P03366).
T1 construct: The enzyme RT (from HIV cloned in E. coli); purchased HT-Biotechnology Ltd, Cambridge, UK; host or cells: E. coli
In words: Assay for HIV reverse transcriptase inhibition (scintillation proximity assay). Format: biochemical. The following applies: RT from HIV cloned in E. coli; SPA, 60 minutes (37° C.). As to the method: Assay of the Substances for HIV Reverse Transcriptase Inhibition
The activity of reverse transcriptase (RT) was determined with the aid of a scintillation proximity assay (SPA).
The reagent kit for the RT-SPA was obtained from Amersham/Buchler (Braunschweig).
The enzyme RT (from HIV cloned in E. coli) originated from HT-Biotechnology Ltd, Cambridge, UK.
The assay was carried out using the manufacturer's (Amersham) protocol manual, with the following modifications: bovine serum albumin was added to the assay buffer to give an end concentration of 0.5 mg/ml the assay was carried out in Eppendorf reaction vessels, using 100 μl volume per batch the manufacturer's RT concentrate (5000 U/ml) was diluted in Tris-HCl buffer 20 mM; pH 7.2; 30% of glycerol, to an activity of 15 U per ml the incubation time for the mixtures was 60 minutes (37° C.) after stopping the reaction and “developing” with the bead suspension, 130 μl of mixture were transferred to 4.5 ml of Tris-HCl buffer, 10 mM; pH 7.4; 0.15 M NaCl, and the tritium activity was measured by means of a [formula]-counter.
For a pre-assay for inhibitory activity, the substances were dissolved in DMSO (stock solution c=1 mg/ml), and tested as a 10^−1, 10^−2, 10^−3, etc., dilution in DMSO.
To determine IC50 values, the inhibitor stock solutions were diluted further in Tris-HCl buffer, 50 mM, pH 8, and tested in suitable concentrations.
The concentration corresponding to a 50% enzyme inhibition was determined from a plot of RT activity versus log Clnh.
In general terms: SPA uses beads or plates that emit light when radiolabelled molecules are held near them.
Regarding `CCCOC(=O)N1c2cc(Cl)ccc2NC(=S)C1(C)C` [Example 7-25], the “Reverse Transcriptase Assay IC50” value was below 0.01 µg/mL.

In the case of `CC1C(=O)Nc2ccc(Cl)cc2N1Cc1ccsc1` (stereo not shown) [Example 10-34], the “Reverse Transcriptase Assay IC50” value was 0.1 to 1 µg/mL.

As to `COc1ccc2c(c1)N(C(=O)OC(C)C)C(CSC)C(=O)N2` (stereo not shown) [Example 3-129], the “Reverse Transcriptase Assay IC50” value lay within 0.01 to 0.1 µg/mL.

Regarding `CC1C(=S)Nc2ccc(Cl)cc2N1Cc1cccnc1` (stereo not shown) [Example 7-20], the “Reverse Transcriptase Assay IC50” value was in the range of 0.1 to 1 µg/mL.

With `CC1C(=O)Nc2ccc(Cl)cc2N1C(=O)SCc1ccccc1` (stereo not shown) [Example 11-5], the “Reverse Transcriptase Assay IC50” value was 0.1 to 1 µg/mL.

In the case of `COc1ccc2c(c1)N(C(=O)OC(C)C)C(CSC)C(=S)N2` (stereo not shown) [Example 7-31], the “Reverse Transcriptase Assay IC50” value was below 0.01 µg/mL.

Take `CSCC1C(=O)Nc2ccc(Cl)cc2N1C(=O)OC(C)C` (stereo not shown) [Example 3-127]: the “Reverse Transcriptase Assay IC50” value lay in the range of 0.01 to 0.1 µg/mL.

Regarding `C=C(C)OC(=O)N1c2cc(Cl)ccc2NC(=O)C1C(C)C` (stereo not shown) [Example 3-37], the “Reverse Transcriptase Assay IC50” value lay in the range of 0.1 to 1 µg/mL.

For the compound `CCC1C(=S)Nc2ccc(Cl)cc2N1Cc1ccccn1` (stereo not shown) [Example 7-26], the “Reverse Transcriptase Assay IC50” value lay in the range of 0.01 to 0.1 µg/mL.

In the case of `C=C(C)COC(=O)N1c2cc(Cl)ccc2NC(=O)C1C` (stereo not shown) [Example 11-7], the “Reverse Transcriptase Assay IC50” value is “approx. 1 μg/ml”.

On to `CSCCOC(=O)N1c2cc(Cl)ccc2NC(=O)C1C` (stereo not shown) [Example 11-13], for which the “Reverse Transcriptase Assay IC50” value is listed as “approx. 1 μg/ml”.

As to `C=C(C)OC(=O)N1c2cc(OC)ccc2NC(=O)C1CSC` (stereo not shown) [Example 3-128], the “Reverse Transcriptase Assay IC50” value was 0.01 to 0.1 µg/mL.

Take `C=C(C)OC(=O)N1c2cc(Cl)ccc2NC(=S)C1CCC` (stereo not shown) [Example 7-17]: the “Reverse Transcriptase Assay IC50” value was 0.01 to 0.1 µg/mL.

Regarding `C=C(C)OC(=O)N1c2ccc(Cl)cc2NC(=O)C1(C)C` [Example 6-9], the “Reverse Transcriptase Assay IC50” value was “approx. 1 μg/ml”.

Take `C=CCOC(=O)N1c2cc(Cl)ccc2NC(=S)C1CCC` (stereo not shown) [Example 7-18]: the “Reverse Transcriptase Assay IC50” value is 0.01 to 0.1 µg/mL.

In the case of `C=C(C)OC(=O)N1c2cc(OC)ccc2NC(=S)C1CSC` (stereo not shown) [Example 7-30], the “Reverse Transcriptase Assay IC50” value was below 0.01 µg/mL.

In the case of `CC1C(=S)Nc2ccc(Cl)cc2N1Cc1ccccn1` (stereo not shown) [Example 7-19], the “Reverse Transcriptase Assay IC50” value was in the range of 0.01 to 0.1 µg/mL.

As to `C=CCOC(=O)N1c2cc(Cl)ccc2NC(=S)C1CC` (stereo not shown) [Example 7-15], the “Reverse Transcriptase Assay IC50” value lay within 0.01 to 0.1 µg/mL.

Turning to `C=C(C)OC(=O)N1c2cc(Cl)ccc2NC(=O)C1(C)C` [Example 6-8], the “Reverse Transcriptase Assay IC50” value lay within 0.1 to 1 µg/mL.

For `CSCC1C(=S)Nc2ccc(Cl)cc2N1C(=O)OC(C)C` (stereo not shown) [Example 7-28], the “Reverse Transcriptase Assay IC50” value was below 0.01 µg/mL.

Regarding `C=CCOC(=O)N1c2cc(Cl)ccc2NC(=O)C1CCC` (stereo not shown) [Example 3-35], the “Reverse Transcriptase Assay IC50” value fell in the range of 0.1 to 1 µg/mL.

As for `CCOC(=O)N1c2cc(Cl)ccc2NC(=S)C1(C)C` [Example 7-24], the “Reverse Transcriptase Assay IC50” value is below 0.01 µg/mL.

As for `C=CCSC(=O)N1c2cc(Cl)ccc2NC(=O)C1C` (stereo not shown) [Example 11-6], the “Reverse Transcriptase Assay IC50” value lay in the range of 0.1 to 1 µg/mL.

As to `CSCC1C(=S)Nc2ccc(Cl)cc2N1Cc1ccccn1` (stereo not shown) [Example 7-29], the “Reverse Transcriptase Assay IC50” value was 0.01 to 0.1 µg/mL.

Turning to `C=C(C)OC(=O)N1c2cc(Cl)ccc2NC(=O)C1CCC` (stereo not shown) [Example 3-34], the “Reverse Transcriptase Assay IC50” value fell in the range of 0.1 to 1 µg/mL.
